Experimental data published in PubChem BioAssay AID1996.
Values after ≈ are worked out from the molar mass of the structure shown.

Conditions: buffer; pH 7.4; 200.0 µM

| Structure (SMILES) | solubility kinetic |
| --- | --- |
| COc1ccccc1C(=O)NCCC(=O)NC1=NCCS1 | > 46.1 µg/mL |
| COc1ccccc1CNC(=O)c1[nH]c(C)c(C(C)=O)c1C | 13.3 µg/mL (≈ 44.3 µM) |
| O=C(CN1C(=O)c2ccccc2C1=O)OCC(=O)N1CCCCC1 | > 49.6 µg/mL |
| COc1ccc(S(=O)(=O)NC(C)C(=O)NCc2ccncc2)cc1Cl (stereo not drawn) | > 57.6 µg/mL |
| OCC(O)CNC(=S)NC1CCCCC1 (stereo not drawn) | > 34.9 µg/mL |
| Cn1c(SCc2cccc(Br)c2)nc2ccccc2c1=O | < 0.4 µg/mL |
| O=C(Cc1ccc(Br)cc1)OCC(=O)N1CCCCCC1 | > 53.1 µg/mL |
| N#CC(C(N)=O)=C1CCCCC1 | > 24.6 µg/mL |
| CNC(=O)COC(=O)/C=C/c1cccs1 | > 33.8 µg/mL |
| Cn1cccc1C(=O)NC(=O)COC(=O)CCNS(=O)(=O)c1ccc(Cl)cc1 | 13.8 µg/mL (≈ 32.3 µM) |
| Cc1cccc(N2CCN(CC(=O)NCc3ccccc3)CC2)c1C | 43.6 µg/mL (≈ 129 µM) |
| CCOC(=O)c1ccc2ncc(-c3ccccc3)nc2c1 | 0.3 µg/mL (≈ 1.08 µM) |
| CCc1nn(CC(=O)Nc2cc(C)ccc2C)c(=N)s1.Cl | > 49 µg/mL |
| CC1(C)CC(NC(=O)c2ccc(-c3ccc([N+](=O)[O-])cc3)o2)CC(C)(C)N1 | 41.1 µg/mL (≈ 111 µM) |
| O=C(Nc1ccccc1C(=O)Nc1ccccn1)c1ccc([N+](=O)[O-])cc1 | 0.6 µg/mL (≈ 1.66 µM) |
| Cc1cc(-c2ccccc2)n2ncnc2n1 | > 31.5 µg/mL |
| Cc1occc1C(=O)Nc1ccc(OCc2ccccc2)cc1 | 2.1 µg/mL (≈ 6.83 µM) |
| Cc1cc(C)nc(Oc2ccc(Br)cc2)n1 | 35.5 µg/mL (≈ 127 µM) |
| O=C(Nc1sc2c(c1C(=O)O)CCCCC2)c1cccnc1 | > 47.5 µg/mL |
| O=C(NC1CCCCC1)c1ccc(-c2ccccc2)cc1 | < 0.6 µg/mL |
| COc1ccccc1/C=C/CN1CCSCC1 | > 37.4 µg/mL |
| C=CCSc1nc(C)cc(C(=O)OCC)c1C#N | 8.6 µg/mL (≈ 32.8 µM) |

| Structure (SMILES) | solubility kinetic |
| --- | --- |
| Cn1cnc([N+](=O)[O-])c1NCc1ccccc1 | 33.5 µg/mL (≈ 144 µM) |
| O=C(NCCCNC(=O)c1ccc(Cl)cc1Cl)c1ccco1 | 50.1 µg/mL (≈ 147 µM) |
| CC(=O)c1c(C)c(C)c2n1CCn1c(C)ccc1-2 | 13.4 µg/mL (≈ 55.3 µM) |
| c1csc(-c2noc(CN3CCc4sccc4C3)n2)c1 | 27.3 µg/mL (≈ 90 µM) |
| CC(=O)Nc1ccc(NC(=O)C(c2ccccc2)c2ccccc2)cc1 | 0.8 µg/mL (≈ 2.32 µM) |
| Cc1ccc2sc(N(CCN(C)C)C(=O)c3ccc4ccccc4c3)nc2c1C.Cl | 0.8 µg/mL |
| O=C(NCc1ccncc1)c1cc(C(=O)C2CC2)c[nH]1 | 36.2 µg/mL (≈ 134 µM) |
| Cc1cccc(S(=O)(=O)NCCc2ccccc2)c1 | 35.7 µg/mL (≈ 130 µM) |
| CN(N)c1nc(N2CCCC2)nc(N2CCCC2)n1 | > 39.5 µg/mL |
| CCOc1ccc(S(=O)(=O)NCCC(=O)N2CCCN(C)CC2)cc1 | 50.4 µg/mL (≈ 136 µM) |
| CC(CNC(=O)COC(=O)c1cccs1)c1ccccc1 (stereo not drawn) | > 45.5 µg/mL |
| c1cc(CNCCc2ccc3c(c2)OCO3)ccn1 | 28.5 µg/mL (≈ 111 µM) |
| O=C1CCCc2c1nc(-c1ccc([N+](=O)[O-])cc1)n2O | > 41 µg/mL |
| O=C(Cc1cccs1)Nc1ccc(F)cc1 | > 35.3 µg/mL |
| N#CCc1ccc(NC(=O)Nc2cccc3ccccc23)cc1 | 0.6 µg/mL (≈ 1.99 µM) |
| COc1ccc([N+](=O)[O-])c(S(=O)(=O)c2ccccc2)n1 | 5.6 µg/mL (≈ 19 µM) |
| O=[N+]([O-])c1ccc2oc(-c3ccccc3)nc2c1 | < 0.3 µg/mL |
| O=C1Cc2ccccc2C(=O)N1c1cccc(Cl)c1 | > 40.8 µg/mL |
| Cc1ccccc1OCCC(=O)Nc1ccc2c(C)cc(=O)oc2c1 | 4.2 µg/mL (≈ 12.4 µM) |
| COc1ccccc1NC(=O)c1c(C)nc2ccccc2c1C(=O)O | > 50.5 µg/mL |
| Cc1cc(C(=O)O/N=C(\N)c2ccc(C(C)(C)C)cc2)no1 | 2.9 µg/mL (≈ 9.62 µM) |
| CSc1nc(N)cc(=O)[nH]1 | > 23.6 µg/mL |

| Structure (SMILES) | solubility kinetic |
| --- | --- |
| COc1cccc(CNC(=O)c2ccccc2-c2ccccc2)c1 | 2.1 µg/mL (≈ 6.62 µM) |
| Cc1ccc(SCc2ccc(C(=O)N3CCCCC3)cc2)cc1 | 6.1 µg/mL (≈ 18.7 µM) |
| COc1ccc(CN2CCOCCOCCOCCOCCOCC2)cc1 | > 57.5 µg/mL |
| O=C(CN1c2cccc3cccc(c23)S1(=O)=O)NCCc1ccccc1 | 2 µg/mL (≈ 5.46 µM) |
| O=C(Nc1ncc2c(n1)-c1ccccc1OC2)c1ccc(F)cc1 | 6.1 µg/mL (≈ 19 µM) |
| CCOc1ccccc1NC(=O)Nc1ccccn1 | < 0.2 µg/mL |
| O=C(c1ccc(F)cc1F)C1CCN(c2ccc([N+](=O)[O-])cn2)CC1 | 1.4 µg/mL (≈ 4.03 µM) |
| Brc1ccsc1-c1csc(-c2ccncc2)n1 | 2.7 µg/mL (≈ 8.35 µM) |
| COc1ccccc1NCC(=O)NC(=O)NC1CCCCC1 | 5.9 µg/mL (≈ 19.3 µM) |
| Cc1cc(C(=O)Nc2nncs2)oc1C | > 33.5 µg/mL |
| CN1CC(C(=O)c2ccc(Cl)cc2)C(c2ccc(N(C)C)cc2)C1 (stereo not drawn) | 47.1 µg/mL (≈ 137 µM) |
| O=C(NC1CCN(S(=O)(=O)c2ccccc2)CC1)c1ccccc1 | < 0.4 µg/mL |
| O=S(=O)(NC1CC1)c1ccccc1 | 28.3 µg/mL (≈ 143 µM) |
| COc1ccccc1CC(=O)NC1CCCCCC1 | 37.6 µg/mL (≈ 144 µM) |
| NC(=NCc1ccco1)NC(=O)c1ccccc1 | > 36.5 µg/mL |
| C=CCN1C(=O)c2ccc(C(=O)Nc3ccccn3)cc2C1=O | 8 µg/mL (≈ 26 µM) |
| Nc1ccc(-c2nc3ncccc3o2)c(O)c1 | 3.1 µg/mL (≈ 13.6 µM) |
| COc1ccc(S(=O)(=O)N2CCN(CC(=O)NC(Cc3ccccc3)C(C)=O)CC2)cc1 (stereo not drawn) | > 68.9 µg/mL |
| Cc1ccc(OCCN2CCCC2)cc1.O=C(O)C(=O)O | > 44.3 µg/mL |
| CC(NC(=O)Cc1ccsc1)c1ccc(F)cc1 (stereo not drawn) | > 39.5 µg/mL |
| O=C(NCC1CCCO1)c1ccc(NC(=O)c2cc(F)c(F)cc2Cl)cc1 (stereo not drawn) | 5.3 µg/mL (≈ 13.4 µM) |
| CC1(C)CC(=O)C=C(NCCc2c[nH]c3ccccc23)C1 | > 42.4 µg/mL |

| Structure (SMILES) | solubility kinetic |
| --- | --- |
| Cn1cnc2cc(NCc3ccccc3Cl)ccc21 | 34.7 µg/mL (≈ 128 µM) |
| COc1ccccc1C(=O)Nc1ccc(NC(=O)c2ccco2)cn1 | 0.7 µg/mL (≈ 2.08 µM) |
| Cn1c(=O)[nH]c(=O)c2c1[nH]c(=S)n2Cc1ccc(Cl)cc1 | 42.3 µg/mL (≈ 131 µM) |
| COc1ccc(C(=O)NCCSCc2ccc(Cl)cc2)cc1OC | 3.9 µg/mL (≈ 10.7 µM) |
| CC(C)c1ccccc1OCCCCN1CCCCC1 | 37.1 µg/mL (≈ 135 µM) |
| CC(=O)c1ccccc1NC(=O)CCN1C(=O)C2CCCCC2C1=O (stereo not drawn) | > 51.4 µg/mL |
| O=C(N/N=C/c1cccc2ccccc12)c1cccnc1 | > 41.3 µg/mL |
| COC(=O)Cc1nc(NC(=O)c2cccs2)sc1C | > 44.5 µg/mL |
| Cc1ccc(OP(N)(=O)Oc2ccc(C)cc2)cc1 | 29.6 µg/mL (≈ 107 µM) |
| Cn1cnnc1Sc1ccc(S(C)(=O)=O)cc1[N+](=O)[O-] | > 47.1 µg/mL |
| NC1=NC(=O)C(Cc2ccc(F)cc2)S1 (stereo not drawn) | 22 µg/mL (≈ 98.1 µM) |
| CCC(C(=O)OCC(=O)N1C(C)CCCC1C)c1ccccc1 (stereo not drawn) | 45.1 µg/mL (≈ 142 µM) |
| CCOc1ccccc1NC(=O)C1C2CCC(O2)C1C(=O)O (stereo not drawn) | > 45.8 µg/mL |
| O=C(COC(=O)c1ccc(Cl)cc1)NCC1CCCCC1 | 5.4 µg/mL (≈ 17.4 µM) |
| CC12CCC(C(=O)Nc3ccncc3)(CC1O)C2(C)C (stereo not drawn) | > 41.2 µg/mL |
| CN(Cc1ccccc1F)C(=O)c1ccccc1Sc1ccccc1C#N | 17 µg/mL (≈ 45.2 µM) |
| CCOC(=O)C1CCN(CC(=O)Nc2ccc(OC)c(S(=O)(=O)N3CCCCC3)c2)CC1 | > 70.1 µg/mL |
| O=C(CSc1nnc(NC(=O)c2ccccc2F)s1)NC1CC1 | > 52.9 µg/mL |
| O=C(CSc1ccc(F)cc1)NC12CC3CC(CC(C3)C1)C2 | 1.1 µg/mL (≈ 3.44 µM) |
| CC1CCC(NC(=O)c2ccc3c(c2)OCO3)CC1 (stereo not drawn) | 10.4 µg/mL (≈ 39.8 µM) |
| CN(C)CCNC(=S)Nc1ccc(F)c(F)c1F | > 41.6 µg/mL |
| O=C(COC(=O)c1cc[n+]([O-])cc1)Nc1ccc(Cl)cc1Cl | > 51.2 µg/mL |
